Assay results reported in ChEMBL document CHEMBL1201862, “PubChem BioAssay data set” (2004).
Activity calls are given as the source filed them.

Tests used:
[1] = biological target: T1, DNA repair protein RAD52 homolog (Homo sapiens, UniProt P43351); type: functional, biochemical
T1 sequence (P43351 whole entry): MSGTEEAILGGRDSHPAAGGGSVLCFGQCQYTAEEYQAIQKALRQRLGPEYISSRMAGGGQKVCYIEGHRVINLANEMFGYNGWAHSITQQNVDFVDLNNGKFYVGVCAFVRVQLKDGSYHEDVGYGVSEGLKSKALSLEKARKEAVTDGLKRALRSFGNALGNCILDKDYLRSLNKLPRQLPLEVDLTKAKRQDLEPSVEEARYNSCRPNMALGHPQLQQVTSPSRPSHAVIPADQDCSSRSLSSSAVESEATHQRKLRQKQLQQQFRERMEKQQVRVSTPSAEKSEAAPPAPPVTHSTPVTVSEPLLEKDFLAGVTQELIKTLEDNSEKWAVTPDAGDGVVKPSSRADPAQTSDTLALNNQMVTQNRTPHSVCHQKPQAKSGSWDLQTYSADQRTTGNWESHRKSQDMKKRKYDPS

Cytochrome P450 1A2 = biological target: T2, Cytochrome P450 1A2 (Homo sapiens, UniProt P05177);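 also: PubChem cytochrome P450 panel assay, CYP1A2 panel member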
T2 sequence (P05177 whole entry): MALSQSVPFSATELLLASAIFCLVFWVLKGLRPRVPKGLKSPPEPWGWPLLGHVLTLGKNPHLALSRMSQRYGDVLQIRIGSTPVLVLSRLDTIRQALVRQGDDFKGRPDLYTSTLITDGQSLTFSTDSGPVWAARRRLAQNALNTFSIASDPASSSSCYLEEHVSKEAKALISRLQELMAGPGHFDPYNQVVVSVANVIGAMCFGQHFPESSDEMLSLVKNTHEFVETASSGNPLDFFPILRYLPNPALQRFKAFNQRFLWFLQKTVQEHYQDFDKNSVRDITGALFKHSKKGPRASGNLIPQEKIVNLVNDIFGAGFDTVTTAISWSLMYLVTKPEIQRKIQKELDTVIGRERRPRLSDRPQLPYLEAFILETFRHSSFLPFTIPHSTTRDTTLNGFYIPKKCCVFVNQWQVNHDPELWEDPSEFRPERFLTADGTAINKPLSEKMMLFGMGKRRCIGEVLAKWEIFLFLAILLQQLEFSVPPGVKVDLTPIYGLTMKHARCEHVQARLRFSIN

Cytochrome P450 2C9 = Cytochrome P450 2C9 (Homo sapiens, UniProt P11712)
Fatty acid synthase = Fatty acid synthase (Homo sapiens, UniProt P49327); assay: FAS thioesterase domain inhibitors, dose response, biochemical, kinetic fluorescence intensity (AID 624326); type: functional;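 also: rate of fluorescence rise from hydrolysis of a fluorogenic O-methyl fluorescein ester substrate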
[2] = Shn3 3'UTR reporter inhibitors, dose response, cell-based, Clone20 osteoblasts, firefly luciferase, cherry-picked (AID 624132); type: functional;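 also: firefly luciferase luminescence from reporter carrying the Shn3 3'UTR in osteoblasts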
[3] = control 3'UTR Renilla luciferase suppression, dose response, counter-screen for Shn3 inhibitor project, cell-based, Clone20-Shn3RL, cherry-picked (AID 624133); type: functional
Protein skinhead-1 = biological target: T3, Protein skinhead-1 (Caenorhabditis elegans, UniProt P34707); type: functional
T3 sequence (P34707 whole entry): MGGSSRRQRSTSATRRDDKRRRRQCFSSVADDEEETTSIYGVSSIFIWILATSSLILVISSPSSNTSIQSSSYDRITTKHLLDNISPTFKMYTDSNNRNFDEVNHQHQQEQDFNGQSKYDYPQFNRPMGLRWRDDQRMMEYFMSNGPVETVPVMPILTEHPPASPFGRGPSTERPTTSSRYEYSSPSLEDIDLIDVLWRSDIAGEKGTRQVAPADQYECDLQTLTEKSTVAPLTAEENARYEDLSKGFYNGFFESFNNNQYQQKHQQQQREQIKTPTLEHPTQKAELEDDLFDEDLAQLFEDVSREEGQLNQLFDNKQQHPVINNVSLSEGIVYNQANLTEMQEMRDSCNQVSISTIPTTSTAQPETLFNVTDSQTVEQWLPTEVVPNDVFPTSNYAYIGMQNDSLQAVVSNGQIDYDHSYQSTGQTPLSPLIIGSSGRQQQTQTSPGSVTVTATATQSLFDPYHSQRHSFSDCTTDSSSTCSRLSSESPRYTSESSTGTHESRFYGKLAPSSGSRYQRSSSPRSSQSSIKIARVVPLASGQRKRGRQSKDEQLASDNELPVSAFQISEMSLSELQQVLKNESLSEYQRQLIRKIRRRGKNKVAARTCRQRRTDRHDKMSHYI

Paired box protein Pax-8 = Paired box protein Pax-8 (Homo sapiens, UniProt Q06710); assay: inhibitors of PAX8-driven TPO luciferase reporter, dose response, RMG-I cells, cherry-pick (AID 687027); type: functional, cell-based;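 also: luciferase reporter driven by Pax8 target thyroperoxidase promoter measured by SteadyGlo luminescence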
Cytochrome P450 2C19 = Cytochrome P450 2C19 (Homo sapiens, UniProt P33261); assay: Cytochrome panel assay with activity outcomes. Panel member name: p450-cyp2c19 Compounds with AC50 equal or less than 10 uM are considered active; type: functional; details: read-out: AC50
[4] = A549 cell cytotoxicity, dose response, cytotoxicity control, plate reader, cherry-pick, antagonist series (AID 743412); type: functional, cell-based
[5] = inhibitors of HIV Env-driven cell fusion, dose response, cherry-pick (AID 652057); type: functional, cell-based
[6] = CEM21 lymphoblast cell cytotoxicity, dose response, cytotoxicity control for viral fusion inhibitor project, CellTiter-Glo luminescence, cherry-picked (AID 652042); type: functional, cell-based;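 also: potency for signal decrease meaning cytotoxicity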
[7] = ZM109 Env clade C HIV-1 fusion inhibitors, dose response, HeLa effector, CEM target cells, luciferase, cherry-pick (AID 652058); type: functional, cell-based
[8] = inhibitors of clade B AD8 Env fusion, dose response, cell-based, cherry-pick (AID 652062); type: functional;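 also: luciferase signal from cell-cell fusion driven by HIV-1 clade B AD8 Env; potency is for inhibitors of fusion seen as a drop in luminescence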
[9] = cytotoxicity in HEK-293T cells, dose response, cytotoxicity control for TCR NF-kB inhibitor project, luminescence, T-cell screen hits (AID 489026); type: functional, cell-based;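 also: cells exposed to compound about 14 hours before the viability readout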
[10] = HepG2 cell cytotoxicity, dose response, cytotoxicity control for Shn3 inhibitor project, CellTiter-Glo, cherry-picked (AID 624134); type: functional, cell-based
[11] = human group III sPLA2 inhibitors, dose response, biochemical, QFRET, IC50 (AID 743457);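 also: green fluorescence rise as the enzyme cleaves BODIPY PC-A2 in liposomes; potency for inhibition of the enzyme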
[12] = biological target: T4, Polyadenylate-binding protein 1 (Homo sapiens, UniProt P11940); assay: PABP1 MLLE–PAM2 interaction inhibitors, dose response, miRNA deadenylation inhibitor project, biochemical, fluorescence polarization, Cy5-PAM2 peptide, secondary (AID 602260); type: functional; details: read-out: IC50_Mean
[13] = biological target: T4, Polyadenylate-binding protein 1; assay: PABP1 MLLE–PAM2 binding inhibitor potency, dose response, biochemical, fluorescence polarization, FITC-PAM2 peptide (AID 602259); type: functional; details: read-out: IC50_Mean
[14] = biological target: T5, Corticotropin-releasing factor receptor 2/Corticotropin-releasing factor-binding protein (Homo sapiens, UniProt P24387+Q13324); assay: activators of CRF receptor 2 with binding protein – uHTS hits, confirmation (AID 602473); type: functional; details: read-out: EC50_Mean
T5 sequence (Q13324 whole entry): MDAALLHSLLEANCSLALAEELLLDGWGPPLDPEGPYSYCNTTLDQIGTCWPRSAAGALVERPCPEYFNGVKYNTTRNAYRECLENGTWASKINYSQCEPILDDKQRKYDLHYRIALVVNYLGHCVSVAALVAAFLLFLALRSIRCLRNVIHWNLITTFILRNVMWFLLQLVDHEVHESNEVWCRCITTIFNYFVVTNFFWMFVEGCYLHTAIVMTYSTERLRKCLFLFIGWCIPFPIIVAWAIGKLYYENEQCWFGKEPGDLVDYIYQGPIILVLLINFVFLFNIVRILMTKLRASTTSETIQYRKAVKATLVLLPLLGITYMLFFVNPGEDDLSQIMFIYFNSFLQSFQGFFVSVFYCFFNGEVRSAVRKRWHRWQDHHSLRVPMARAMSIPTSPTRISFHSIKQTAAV
T5 sequence (P24387 whole entry): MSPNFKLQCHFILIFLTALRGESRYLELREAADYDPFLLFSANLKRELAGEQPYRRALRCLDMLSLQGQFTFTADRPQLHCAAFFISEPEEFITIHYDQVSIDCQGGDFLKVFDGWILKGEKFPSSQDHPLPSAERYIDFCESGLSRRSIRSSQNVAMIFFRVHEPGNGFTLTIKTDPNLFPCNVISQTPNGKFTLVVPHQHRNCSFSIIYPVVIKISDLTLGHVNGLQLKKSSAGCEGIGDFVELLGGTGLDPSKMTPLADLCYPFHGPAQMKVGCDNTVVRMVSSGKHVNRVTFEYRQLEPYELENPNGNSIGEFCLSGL

Chain of Cytochrome P450 2C9 (P11712 whole entry, the tested form may be a part): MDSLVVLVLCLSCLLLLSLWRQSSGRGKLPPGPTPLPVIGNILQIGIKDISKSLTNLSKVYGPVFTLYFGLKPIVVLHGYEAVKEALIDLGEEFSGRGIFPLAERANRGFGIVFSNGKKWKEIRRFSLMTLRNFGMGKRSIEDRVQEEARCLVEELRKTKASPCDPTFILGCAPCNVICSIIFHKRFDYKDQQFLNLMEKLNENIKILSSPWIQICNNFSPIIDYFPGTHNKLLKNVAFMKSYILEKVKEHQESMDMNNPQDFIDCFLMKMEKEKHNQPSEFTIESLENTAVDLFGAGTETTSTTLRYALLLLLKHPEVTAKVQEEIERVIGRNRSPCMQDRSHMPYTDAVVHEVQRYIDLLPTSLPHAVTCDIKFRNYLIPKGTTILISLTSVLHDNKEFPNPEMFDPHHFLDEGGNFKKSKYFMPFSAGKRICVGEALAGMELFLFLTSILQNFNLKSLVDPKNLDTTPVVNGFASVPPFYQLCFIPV
T4 sequence (P11940 whole entry): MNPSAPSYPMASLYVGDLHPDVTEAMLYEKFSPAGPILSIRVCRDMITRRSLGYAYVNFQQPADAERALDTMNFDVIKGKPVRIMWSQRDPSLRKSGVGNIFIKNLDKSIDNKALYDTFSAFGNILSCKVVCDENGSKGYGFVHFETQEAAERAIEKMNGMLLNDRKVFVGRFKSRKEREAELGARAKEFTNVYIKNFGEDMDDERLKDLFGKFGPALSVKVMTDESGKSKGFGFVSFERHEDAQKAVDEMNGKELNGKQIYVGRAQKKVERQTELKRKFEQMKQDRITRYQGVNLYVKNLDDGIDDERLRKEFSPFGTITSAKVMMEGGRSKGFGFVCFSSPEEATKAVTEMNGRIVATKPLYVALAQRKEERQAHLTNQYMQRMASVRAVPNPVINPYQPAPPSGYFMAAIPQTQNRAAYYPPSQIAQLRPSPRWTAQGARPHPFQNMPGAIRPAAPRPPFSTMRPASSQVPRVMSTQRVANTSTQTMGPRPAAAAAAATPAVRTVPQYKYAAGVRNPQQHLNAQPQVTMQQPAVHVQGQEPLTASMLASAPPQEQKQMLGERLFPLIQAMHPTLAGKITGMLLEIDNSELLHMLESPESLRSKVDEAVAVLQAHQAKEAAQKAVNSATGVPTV
Chain of Fatty acid synthase (P49327 whole entry, the tested form may be a part): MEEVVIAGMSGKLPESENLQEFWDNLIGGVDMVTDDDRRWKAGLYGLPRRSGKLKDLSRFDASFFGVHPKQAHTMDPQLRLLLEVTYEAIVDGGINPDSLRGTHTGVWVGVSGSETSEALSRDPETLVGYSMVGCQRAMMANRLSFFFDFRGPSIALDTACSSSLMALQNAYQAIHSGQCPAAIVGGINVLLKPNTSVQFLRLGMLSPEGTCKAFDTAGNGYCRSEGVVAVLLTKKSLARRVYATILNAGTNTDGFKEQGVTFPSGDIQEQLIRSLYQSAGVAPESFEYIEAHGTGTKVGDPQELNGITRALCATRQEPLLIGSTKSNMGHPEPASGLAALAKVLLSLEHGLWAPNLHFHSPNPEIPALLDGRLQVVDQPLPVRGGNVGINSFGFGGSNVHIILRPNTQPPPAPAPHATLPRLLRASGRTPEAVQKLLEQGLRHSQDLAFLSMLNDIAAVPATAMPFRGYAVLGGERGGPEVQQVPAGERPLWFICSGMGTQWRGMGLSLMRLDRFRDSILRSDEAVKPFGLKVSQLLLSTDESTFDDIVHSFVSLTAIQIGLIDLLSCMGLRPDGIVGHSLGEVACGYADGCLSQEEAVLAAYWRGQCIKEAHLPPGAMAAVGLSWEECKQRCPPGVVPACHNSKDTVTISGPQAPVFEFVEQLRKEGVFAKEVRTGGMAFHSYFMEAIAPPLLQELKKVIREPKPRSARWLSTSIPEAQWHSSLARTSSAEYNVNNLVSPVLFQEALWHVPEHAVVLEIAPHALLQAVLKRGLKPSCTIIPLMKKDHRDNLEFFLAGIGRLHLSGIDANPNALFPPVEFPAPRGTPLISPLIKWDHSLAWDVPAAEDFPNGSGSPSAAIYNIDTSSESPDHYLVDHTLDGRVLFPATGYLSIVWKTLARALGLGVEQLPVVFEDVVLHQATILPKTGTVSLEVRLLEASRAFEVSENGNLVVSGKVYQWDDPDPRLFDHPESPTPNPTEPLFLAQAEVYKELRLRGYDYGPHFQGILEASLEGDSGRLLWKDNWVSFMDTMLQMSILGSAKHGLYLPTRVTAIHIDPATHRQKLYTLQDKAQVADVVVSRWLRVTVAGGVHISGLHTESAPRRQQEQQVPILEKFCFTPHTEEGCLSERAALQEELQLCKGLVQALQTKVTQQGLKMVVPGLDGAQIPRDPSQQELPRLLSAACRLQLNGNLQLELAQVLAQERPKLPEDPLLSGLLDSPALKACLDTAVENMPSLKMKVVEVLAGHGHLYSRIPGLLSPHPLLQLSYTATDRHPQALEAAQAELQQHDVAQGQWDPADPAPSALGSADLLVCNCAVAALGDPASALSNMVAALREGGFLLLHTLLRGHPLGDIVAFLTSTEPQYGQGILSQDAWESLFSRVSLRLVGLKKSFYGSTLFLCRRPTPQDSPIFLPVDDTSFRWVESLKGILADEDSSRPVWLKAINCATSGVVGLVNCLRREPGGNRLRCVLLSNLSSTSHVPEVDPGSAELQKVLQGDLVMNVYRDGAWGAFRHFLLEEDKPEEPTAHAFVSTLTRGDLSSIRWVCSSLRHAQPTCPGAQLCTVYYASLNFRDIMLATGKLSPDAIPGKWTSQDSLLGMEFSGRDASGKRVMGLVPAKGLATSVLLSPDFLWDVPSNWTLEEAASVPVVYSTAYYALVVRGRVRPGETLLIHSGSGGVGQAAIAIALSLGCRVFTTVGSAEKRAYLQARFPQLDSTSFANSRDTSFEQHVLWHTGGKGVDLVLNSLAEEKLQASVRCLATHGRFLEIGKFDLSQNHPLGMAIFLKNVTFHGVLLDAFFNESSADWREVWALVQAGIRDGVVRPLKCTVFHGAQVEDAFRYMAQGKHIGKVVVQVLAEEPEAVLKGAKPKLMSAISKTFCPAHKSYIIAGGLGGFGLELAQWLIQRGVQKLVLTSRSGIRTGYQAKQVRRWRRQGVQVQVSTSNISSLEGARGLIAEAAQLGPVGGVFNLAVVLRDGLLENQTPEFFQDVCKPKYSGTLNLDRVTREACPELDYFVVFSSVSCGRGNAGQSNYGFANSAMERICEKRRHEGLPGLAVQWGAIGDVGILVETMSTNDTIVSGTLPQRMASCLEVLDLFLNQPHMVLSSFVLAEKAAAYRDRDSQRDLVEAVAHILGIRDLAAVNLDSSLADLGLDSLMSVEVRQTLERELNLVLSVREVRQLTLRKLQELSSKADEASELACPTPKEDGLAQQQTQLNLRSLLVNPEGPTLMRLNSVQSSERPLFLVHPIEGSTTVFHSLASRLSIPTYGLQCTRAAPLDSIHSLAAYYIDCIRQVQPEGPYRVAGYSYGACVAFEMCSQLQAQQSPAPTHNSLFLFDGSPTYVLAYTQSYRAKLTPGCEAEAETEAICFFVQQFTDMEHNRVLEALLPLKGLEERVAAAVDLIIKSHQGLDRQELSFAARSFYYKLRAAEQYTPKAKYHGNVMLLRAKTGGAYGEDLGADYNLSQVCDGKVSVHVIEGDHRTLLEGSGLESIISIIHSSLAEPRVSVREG
Chain of Paired box protein Pax-8 (Q06710 whole entry): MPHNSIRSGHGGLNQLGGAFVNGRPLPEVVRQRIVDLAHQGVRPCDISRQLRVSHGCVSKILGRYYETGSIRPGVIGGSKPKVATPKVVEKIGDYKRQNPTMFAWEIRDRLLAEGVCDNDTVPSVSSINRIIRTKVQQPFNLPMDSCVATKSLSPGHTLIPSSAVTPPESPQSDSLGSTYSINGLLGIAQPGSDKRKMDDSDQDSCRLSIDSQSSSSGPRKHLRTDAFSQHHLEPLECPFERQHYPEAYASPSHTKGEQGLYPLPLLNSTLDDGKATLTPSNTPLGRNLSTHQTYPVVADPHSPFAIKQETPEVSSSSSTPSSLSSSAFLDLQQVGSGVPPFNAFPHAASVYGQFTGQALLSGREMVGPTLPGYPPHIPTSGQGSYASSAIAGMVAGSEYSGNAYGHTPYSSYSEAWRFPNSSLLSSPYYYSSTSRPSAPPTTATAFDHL
Chain of Cytochrome P450 2C19 (P33261 whole entry): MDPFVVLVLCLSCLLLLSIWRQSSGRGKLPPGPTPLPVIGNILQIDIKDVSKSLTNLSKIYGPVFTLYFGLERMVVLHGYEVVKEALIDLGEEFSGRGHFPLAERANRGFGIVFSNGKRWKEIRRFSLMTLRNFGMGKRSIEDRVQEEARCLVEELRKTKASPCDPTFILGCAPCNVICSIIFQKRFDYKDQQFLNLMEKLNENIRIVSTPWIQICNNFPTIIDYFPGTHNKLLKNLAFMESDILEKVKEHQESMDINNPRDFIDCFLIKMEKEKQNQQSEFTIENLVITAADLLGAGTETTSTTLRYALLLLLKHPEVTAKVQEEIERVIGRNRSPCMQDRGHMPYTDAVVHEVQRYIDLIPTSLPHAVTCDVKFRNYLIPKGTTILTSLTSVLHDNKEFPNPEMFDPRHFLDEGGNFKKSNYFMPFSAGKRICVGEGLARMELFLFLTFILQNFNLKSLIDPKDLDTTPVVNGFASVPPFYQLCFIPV

## N=C(N)Nc1ccc2[nH]c3c(c2c1)C[C@@]1(O)[C@H]2Cc4ccc(O)c5c4[C@@]1(CCN2CC1CC1)[C@H]3O5
[1]
  AC50: 8.43 µM (active)

## CC(C)CCN1CC(C(=O)N2CCN(c3ccc(F)cc3)CC2)CC1=O (stereo not given)
Cytochrome P450 1A2
  AC50: 251 nM (inconclusive)
Cytochrome P450 2C9
  AC50: inconclusive

## O=C(C[C@H]1C[C@H](C(=O)N2CCOCC2)[C@@]2(CCC3CCCC3)c3[nH]c4cc(-c5ccco5)ccc4c3CCN2C1=O)NCCc1ccccn1
Fatty acid synthase
  IC50: 7.01 µM (active)

## COC(=O)C12OCC34C(CC5C(C)=C(O)C(=O)CC5(C)C3C(O)C1O)OC(=O)C(OC(=O)/C=C(\C)C(C)C)C24 (stereo not given)
[2]
  AC50: < 260 nM (active)
[3]
  AC50: < 0.26 µM (active)
Protein skinhead-1
  IC50: 42.7 µM (active)
Paired box protein Pax-8
  AC50: < 260 nM (active)

## CCCC(=O)N1CCN(c2ccc(NC(=O)c3cc4ccccc4o3)cc2)CC1
Protein skinhead-1
  IC50: > 100 µM (inactive)

## OC1CC2CCC(C1)N2CCCN1c2ccccc2Sc2ccc(Cl)cc21 (stereo not given)
[1]
  AC50: 12.9 µM (active)

## COCCCNC(=O)/C=C/c1cccc(Cl)c1
Cytochrome P450 2C19
  AC50: 15.8 µM (inconclusive)
Cytochrome P450 2C9
  AC50: inconclusive

## COc1ccc2[nH]c3c(c2c1)CCN1C(=O)N([C@@H](C)C(=O)NCc2ccc(C)cc2)C(=O)[C@]31C
[4]
  AC50: > 52 µM (inactive)

## C[C@H](CO)N1C[C@H](C)[C@H](CN(C)S(=O)(=O)c2cccc(C#N)c2)OCc2ccccc2-c2c(n(C)c3ccccc23)C1=O
[5]
  AC50: 0.726 µM (active)
[6]
  AC50: 46.1 µM (active)
[7]
  AC50: 3.13 µM (active)
[8]
  AC50: 10.3 µM (active)

## O=C(Nc1ccc(N2CCN(C(=O)c3ccc(Cl)cc3)CC2)cc1)c1ccc2c(c1)OCCO2
[9]
  IC50: > 80 µM (inactive)
[2]
  AC50: 2540 nM (active)
[10]
  AC50: 1.96 µM (active)
[3]
  AC50: 7.89 µM (active)
[5]
  AC50: 32.5 µM (active)
[6]
  AC50: 47.7 µM (active)
[7]
  AC50: 0.791 µM (active)
[8]
  AC50: 6.8 µM (active)

## Sc1nnc(-c2ccc(Cl)cc2Cl)n1Cc1ccccc1
[11]
  IC50: > 122 µM (inactive)

## O=C(NC(=S)NNC(=O)c1ccccc1O)c1ccc([N+](=O)[O-])cc1
[12]
  IC50: > 66 µM (inactive)
[13]
  IC50: > 66 µM (inactive)
[14]
  EC50: > 53 µM (inactive)
[11]
  IC50: > 122 µM (inactive)
